Here are results for two compounds from US10046038B2, “Leptospira with increased antigenic mass” (priority 2012, dated 2018).

Read-outs that look alike come from different tables or passages of the source.

The subject of data set [1] is Leptospira. The settings on record: most serogroups other than Canicola; alpha or gamma isomer.
For data set [2], the system named is Leptospira serogroup Australis (serovar Bratislava). Format: cell-based, L. interrogans (sensu lato). The settings on record: linoleic acid supplementation of low LA BSA medium.
The test system of data set [3] is Leptospira serogroup Tarassovi. The class given is cell-based, L. interrogans (sensu lato). As to conditions: EMJH standard BSA, vs unsupplemented reference culture. Here is the method:
(§1) All experiments were performed in 0.5, 2 or 20 L working volume, computer-controlled fermenters (Sartorius), which were filled with 0.5, 1 or 10 L sterile-filtered EMJH medium, respectively. The standard EMJH medium contained 1% w/v BSA and 0.125% w/v polysorbate 80. The pH of the medium was 7.4 ±0.1 at start. The fermenter was inoculated with 5% v/v serogroup lcterohaemorrhagiae pre-culture (passage 5), giving an inoculation density of 2-4×10^7 cells/ml at day 0.
(§2) Supplementation was done either with pure linoleic acid (Sigma Aldrich, >99% pure) as a 10% v/v stock in absolute ethanol (JT Baker). Alternatively, linoleic acid was supplemented by using a BSA that was created with a high level of linoleic acid (high LA BSA). This high LA BSA was used either to replace a standard BSA in EMJH medium, or was used in addition to BSA in the EMJH medium, in which case it was added as a 25% w/v stock solution in sterile water. The high LA BSA or the pure linoleic acid/ethanol supplements were fed to a fermenter over the course of 4 hours, at 0.1-0.2 ml/hour, until the fermenter culture had received a desired total amount of linoleic acid. Different total available levels of linoleic acid have been tested, of between about 5 and 425 μg/ml in the total volume. The fermenter cultures of Leptospira were supplemented at different cell-densities i.e. at early-, mid- or end phase culture.
(§3) Daily 5 ml samples were taken aseptically, directly from the fermenter, for analyses of total cell count (by Petroff-Hausser counting chamber); antigenic mass (by antigen amount Elisa); inactivated cells; and for profiling of the fatty acid type and-relative amounts (by gas chromatography) in the culture medium.
(§4) Samples were inactivated with 0.1 or 0.2% v/v BPL, at 29° C. for 16-24 hours. The inactivated Leptospira were tested in an antigen Elisa within 24 hours.
(§5) For a reference see: R. A. Hartskeerl et al., (International course on laboratory methods for the diagnosis of Leptospirosis, 4th Edition, 1 Apr. 2004. Royal Tropical Institute, Amsterdam).
(§6) The Elisa's were set up as capture assays, whereby the same moab was used for coating and for detection.
A reference standard was prepared for each Leptospira strain that was tested by antigen Elisa. The standard is a batch of monovalent Leptospira antigen, from inactivated cells. This was prepared using common techniques, essentially by proliferating a specific strain of Leptospira in EMJH medium as described above, and was inactivated as described before. Next the standard was concentrated and/or diluted in phosphate buffered saline, to contain about 1×10^9 cells/ml. An arbitrary number of antigen units was affixed to the sample, for example: 1000 Units/ml. When the standard needed replenishing, a subsequent preparation of the same standard, was compared and titrated alongside the old standard several times, before replacing it.
As before, the average antigenic mass score by Elisa was calculated per 1×10^9 cells (pre-inactivation). […] The average antigenic mass 1×10^9 cells of the reference culture was set at 0% increase.
Both alpha-and gamma C18:3 were purchased as pure chemicals (>98%).

The test system of data set [4] is Leptospira serogroup Icterohaemorrhagiae. Put plainly: Biomass (total cell count) and toxicity in fermenter culture. The settings on record: additional 400 μg/ml pure linoleic acid in ethanol; EMJH with high LA BSA. Format: cell-based, L. interrogans (sensu lato). As for the experimental part: (§7) During all fermentation experiments the temperature was controlled at about 29° C. The medium was aerated with headspace airflow, and the dissolved oxygen (pO2) concentration was controlled by automatic variation of the agitation-rate, to maintain a set pO2 concentration. Temperature, pH and pO2 concentration were monitored online, but pH and foam formation were not controlled.

Data set [5] concerns Leptospira serogroup Tarassovi. The data set is described as follows: Biomass and toxicity in fermenter culture. Format: cell-based, L. interrogans (sensu lato). The settings on record: 300 μg/ml C18:2; EMJH standard BSA. Here is the method:
In a supplementation similar to that described in Example 6 above, the effect of supplementation with different amounts of C18:2 fatty acid on the biomass and the antigenic mass of a culture of Leptospira serogroup Tarassovi in EMJH medium with standard BSA was tested.

Data set [6] deals with Leptospira serogroup Grippotyphosa. Format: cell-based, L. interrogans (sensu lato). As to conditions: supplementation with linoleic acid; days 4 and 5.
Data set [7] concerns Leptospira serogroup Icterohaemorrhagiae. The data set is described as follows: Antigenic mass of fermenter culture by antigen Elisa. The class given is cell-based, L. interrogans (sensu lato). As to conditions: for relative Ag. mass (%): non-supplemented = 100. Here is the method: A working seed of a strain of L. interrogans was inoculated into EMJH medium and incubated at 29° C. for 3 to 5 days. If needed up to 5 consecutive pre-culture passages could be made, whereby the pre-cultures were visually inspected for sufficient proliferation (turbidity) as criterion for transfer to the next passage.
as §1, §7
In comparative experiments up to 4 fermenters were run in parallel, which started off simultaneously with the same medium and Leptospira inoculum. One fermenter then usually contained only standard EMJH medium and served as reference, while in the others different supplementations of polyunsaturated C18 fatty acid were made.
as §2, §3, §4, §5, §6
A reference standard was prepared for each Leptospira strain that was tested by antigen Elisa. The standard is a batch of monovalent Leptospira antigen, from inactivated cells. This was prepared using common techniques, essentially by proliferating a specific strain of Leptospira in EMJH medium as described above, and was inactivated as described before.

With `CC/C=C\C/C=C\C/C=C\CCCCCCCC(=O)O` [C18:3, Linolenic acid], the “supplementation level showing cytotoxicity” value in data set [1] is at least 200 µg/mL.

For the compound `CCCCCC=CCC=CCCCCCCCC(=O)O` [linoleic acid, 9, 12-octadecadienoic acid], the “increase in antigenic mass” value in data set [2] was determined as 45%. In addition, the “increase in antigenic mass per unit of biomass” value was 67% in data set [3] (100 μg/ml C18:2) and 99% in data set [3] (200 μg/ml C18:2). The “toxicity for the bacteria (cell numbers after supplementation)” value in data set [4] is recorded as “induced toxicity”. In data set [5], the “toxicity to the culture” value was “toxic”. In addition, in data set [6], the “increase in the antigenic mass” value was found to be 63%. In addition, the “Ag. mass, Ag U/10^9 cells/ml” value is 1783 Ag U/10^9 cells/ml in data set [7] (100 μg/ml added at 1 × 10^8 cells/ml, total 105 μg/ml, average of days 4-5); 1564 Ag U/10^9 cells/ml in data set [7] (100 μg/ml added at 5 × 10^8 cells/ml, total 105 μg/ml, average of days 4-5); 1656 Ag U/10^9 cells/ml in data set [7] (100 μg/ml added at 9 × 10^8 cells/ml, total 105 μg/ml, average of days 4-5); 1450 Ag U/10^9 cells/ml in data set [7] (supplem. pure C18:2 75 μg/ml, total 80 μg/ml, EMJH standard BSA, average of days 3-5); 1550 Ag U/10^9 cells/ml in data set [7] (supplem. pure C18:2 150 μg/ml, total 155 μg/ml, EMJH standard BSA, average of days 3-5). Further, the “relative Ag. mass (%)” value in data set [7] (100 μg/ml added at 1 × 10^8 cells/ml, average of days 4-5) is listed as 226%; in data set [7] (100 μg/ml added at 5 × 10^8 cells/ml, average of days 4-5), 198%; in data set [7] (100 μg/ml added at 9 × 10^8 cells/ml, average of days 4-5) it was 210%; in data set [7] (supplem. pure C18:2 75 μg/ml, total 80 μg/ml, average of days 3-5) it was 199%; in data set [7] (supplem. pure C18:2 150 μg/ml, total 155 μg/ml, average of days 3-5) it was 213%. Moreover, in data set [7] (100 μg/ml pure linoleic acid in ethanol added on day 2 (mid-exponential) to EMJH with high LA BSA, average of days 3-5), the antigenic mass stood at 1767 Ag. U/1×10^9 cells. The “increase in relative antigenic mass” value in data set [7] (100 μg/ml single fatty acid, FIGS. 37 and 38) is given as 77%. Besides, the “increase of antigenic mass” value in data set [7] (25 instead of 5 μg/ml linoleic acid available) came to 124%. Also, in data set [7] (additional 200 μg/ml pure linoleic acid, EMJH with high LA BSA), the “increase of the antigenic mass (in words)” value is “slightly less increase of the antigenic mass compared to that of the 100 μg/ml group”.
